Test results published in BindingDB's records for patent US20250230171 (Moma Therapeutics, 2025).

These compounds were tested against T1, DNA polymerase theta (POLQ) (2-894) (assay: ATPase Assay).
T1 construct: 2-894
Description: POLθ-mediated ATP hydrolysis was measured using the ADP-Glo Kinase Assay (Promega Corporation, Madison, WI). Reactions were performed in white 384-well small-volume microplates (Greiner Bio-One, Frickenhausen, Germany) using a total volume of 15 μL. The ATPase reaction consisted of 1 nM biotinylated Avi-POLθ[2-894], 5 nM of a 50 nucleotide poly-thymine repeat single-stranded DNA (PolyT(50) ssDNA), and 100 μM ATP in 5 μL of assay buffer (50 mM Tris, pH 7.5, 80 mM KCl, 10 MgCl2, 1 mM DTT, 5% glycerol, 0.01% BSA, 0.01% Tween-20). Inhibition of POLΘATPase activity was determined by preparing 11-point serial dilutions of the test compounds in 100% DMSO, then transferring 30 nL of the compounds into the ATPase reaction using an Echo acoustic liquid handler (Beckman Coulter, Brea, CA). DMSO-treated wells containing either all of the reaction components (1 nM biotinylated Avi-POLθ[2-894], 5 nM PolyT(50) ssDNA, 100 μM ATP) or with assay buffer substituted for the biotinylated Avi-POLθ[2-894](0 nM biotinylated Avi-POLθ[2-894], 5 nM PolyT(50) ssDNA, 100 μM ATP) were used to define the maximum and minimum response in the assay. Following a one-hour incubation at ambient temperature, 5 μL of ADP-Glo Reagent was added to the ATPase reaction, and this mixture was allowed to incubate at ambient temperature for an additional hour. Lastly, 5 μL of Kinase Detection Reagent was added, followed by a third one-hour incubation at ambient temperature. The reagent concentrations listed represent the amounts only in the 5 μL ATPase reaction volume.

| Structure (SMILES) | IC50 [nM] |
| --- | --- |
| COc1cnc(Cl)cc1-c1cc(C)ncc1C(=O)Nc1nc2c(s1)CN(C(=O)C1CC13CC3)C2 (racemic) [US20250230171, Compound 535] | 32.5 |
| COc1cnc(Cl)cc1-c1cc(C)ncc1C(=O)Nc1nc2c(s1)CN(C(=O)c1cnc(C(F)F)cc1C)C2 [US20250230171, Compound 466] | 8 |
| COc1cc(Cl)ccc1C(=O)N1Cc2nc(NC(=O)c3cnc(C)cc3-c3cc(C#N)ccc3OC)sc2C1 [US20250230171, Compound 467] | 8 |
| COc1ccc2oc(C(=O)N3Cc4nc(NC(=O)c5cnc(C)cc5-c5cc(Cl)ncc5OC)sc4C3)nc2c1 [US20250230171, Compound 472] | 8 |
| COc1cnc(Cl)cc1-c1cc(C)ncc1C(=O)Nc1nc2c(s1)CN(C(=O)C1CC3(CC(F)C3)C1)C2 (stereo not drawn) [US20250230171, Compound 473] | 8 |
| COc1cnc(Cl)cc1-c1cc(C)ncc1C(=O)Nc1nc2c(s1)CN(C(=O)c1c(C)ncn1C)C2 [US20250230171, Compound 476] | 8 |
| COc1cnc(Cl)cc1-c1cc(C)ncc1C(=O)Nc1nc2c(s1)CN(C(=O)c1cnc(C(F)(F)F)nc1C)C2 [US20250230171, Compound 477] | 8 |
| COc1cnc(Cl)cc1-c1cc(C)ncc1C(=O)Nc1nc2c(s1)CN(C(=O)c1nc(C)ncc1Cl)C2 [US20250230171, Compound 479] | 8 |
| COc1ncc(Cl)c(C(=O)N2Cc3nc(NC(=O)c4cnc(C)cc4-c4cc(Cl)ncc4OC)sc3C2)n1 [US20250230171, Compound 481] | 8 |
| COc1cnc(Cl)cc1-c1cc(C)ncc1C(=O)Nc1nc2c(s1)CN(C(=O)c1cc(Cl)cnc1OC)C2 [US20250230171, Compound 486] | 8 |
| COc1cnc(Cl)cc1-c1cc(C)ncc1C(=O)Nc1nc2c(s1)CN(C(=O)c1nc(C)ncc1OC)C2 [US20250230171, Compound 493] | 8 |
| COc1cnc(Cl)cc1-c1cc(C)ncc1C(=O)Nc1nc2c(s1)CN(C(=O)c1cccc(C)n1)C2 [US20250230171, Compound 497] | 8 |
| COc1cnc(Cl)cc1-c1cc(C)ncc1C(=O)Nc1nc2c(s1)CN(C(=O)c1nc(C)ccc1Cl)C2 [US20250230171, Compound 498] | 8 |
| COc1cnc(Cl)cc1-c1cc(C)ncc1C(=O)Nc1nc2c(s1)CN(C(=O)c1ncc(C(C)(F)F)cc1Cl)C2 [US20250230171, Compound 501] | 8 |
| COc1cnc(Cl)cc1-c1cc(C)ncc1C(=O)Nc1nc2c(s1)CN(C(=O)c1ccc(OC)c3cncn13)C2 [US20250230171, Compound 502] | 8 |
| COc1ccc(C#N)cc1-c1cc(C)ncc1C(=O)Nc1nc2c(s1)CN(C(=O)c1ccc(OC(F)F)cc1)C2 [US20250230171, Compound 503] | 8 |
| COc1cnc(Cl)cc1-c1cc(C)ncc1C(=O)Nc1nc2c(s1)CN(C(=O)c1cc(Cl)cc(C)n1)C2 [US20250230171, Compound 505] | 8 |
| COc1cnc(Cl)cc1-c1cc(C)ncc1C(=O)Nc1nc2c(s1)CN(S(=O)(=O)c1ccccn1)C2 [US20250230171, Compound 507] | 8 |
| COc1cnc(Cl)cc1-c1cc(C)ncc1C(=O)Nc1nc2c(s1)CN(C(=O)c1cnn(C(F)(F)F)c1)C2 [US20250230171, Compound 513] | 8 |
| COc1cnc(Cl)cc1-c1cc(C)ncc1C(=O)Nc1nc2c(s1)CN(C(=O)c1ncncc1OC)C2 [US20250230171, Compound 514] | 8 |
| COc1cnc(Cl)cc1-c1cc(C)ncc1C(=O)Nc1nc2c(s1)CN(C(=O)c1c(C#N)cnn1C)C2 [US20250230171, Compound 515] | 8 |
| COc1ccc(C(=O)N2Cc3nc(NC(=O)c4cnc(C)cc4-c4cc(C#N)ccc4OC)sc3C2)c(Cl)c1 [US20250230171, Compound 516] | 8 |
| COc1ccc(C#N)cc1-c1cc(C)ncc1C(=O)Nc1nc2c(s1)CN(C(=O)c1ccc(C(F)F)cc1Cl)C2 [US20250230171, Compound 519] | 8 |

Other lines, results leading:

| IC50 [nM] | Structure (SMILES) |
| --- | --- |
| 8 | COc1cnc(Cl)cc1-c1cc(C)ncc1C(=O)Nc1nc2c(s1)CN(C(=O)C1CCCC(OC(F)(F)F)C1)C2 (racemic) [US20250230171, Compound 485] |
| 8 | COc1cnc(Cl)cc1-c1cc(C)ncc1C(=O)Nc1nc2c(s1)CN(C(=O)c1ccc(OC(F)F)nc1)C2 [US20250230171, Compound 32] |
| 8 | COc1cnc(Cl)cc1-c1cc(C)ncc1C(=O)Nc1nc2c(s1)CN(C(=O)c1ccc(C(F)F)c(Cl)c1)C2 [US20250230171, Compound 381] |
| 8 | COc1cnc(Cl)cc1-c1cc(C)ncc1C(=O)Nc1nc2c(s1)CN(C(=O)c1ccc(C(F)F)cc1F)C2 [US20250230171, Compound 382] |
| 8 | COc1cnc(Cl)cc1-c1cc(C)ncc1C(=O)Nc1nc2c(s1)CN(C(=O)c1ccc(C(F)F)nc1OC)C2 [US20250230171, Compound 384] |
| 8 | COc1cnc(Cl)cc1-c1cc(C)ncc1C(=O)Nc1nc2c(s1)CN(C(=O)c1ncc(C(F)F)cn1)C2 [US20250230171, Compound 400] |
| 8 | COc1cnc(Cl)cc1-c1cc(C)ncc1C(=O)Nc1nc2c(s1)CN(C(=O)c1ccc(C(F)F)c(F)c1)C2 [US20250230171, Compound 403] |
| 8 | COc1cnc(Cl)cc1-c1cc(C)ncc1C(=O)Nc1nc2c(s1)CN(C(=O)c1c(Cl)c(C)nn1C)C2 [US20250230171, Compound 408] |
| 8 | COc1cnc(Cl)cc1-c1cc(C)ncc1C(=O)Nc1nc2c(s1)CN(C(=O)c1ccc(F)c(Cl)n1)C2 [US20250230171, Compound 411] |
| 8 | COc1cnc(Cl)cc1-c1cc(C)ncc1C(=O)Nc1nc2c(s1)CN(C(=O)c1ncc(C(F)F)cc1OC)C2 [US20250230171, Compound 412] |
| 8 | COc1cnc(Cl)cc1-c1cc(C)ncc1C(=O)Nc1nc2c(s1)CN(C(=O)c1nc(C(F)F)ccc1OC)C2 [US20250230171, Compound 415] |
| 8 | COc1cnc(Cl)cc1-c1cc(C)ncc1C(=O)Nc1nc2c(s1)CN(C(=O)c1cnc(C)c(C)n1)C2 [US20250230171, Compound 416] |
| 8 | COc1cnc(Cl)cc1-c1cc(C)ncc1C(=O)Nc1nc2c(s1)CN(C(=O)C1CC3(CC(C)C3)C1)C2 (stereo not drawn) [US20250230171, Compound 418] |
| 8 | COc1ccc(C#N)cc1-c1cc(C)ncc1C(=O)Nc1nc2c(s1)CN(C(=O)c1cccc(Cl)c1OC)C2 [US20250230171, Compound 422] |
| 8 | COc1cnc(Cl)cc1-c1cc(C)ncc1C(=O)Nc1nc2c(s1)CN(C(=O)c1nccc(C(F)(F)F)n1)C2 [US20250230171, Compound 431] |
| 8 | COc1ccc(C#N)cc1-c1cc(C)ncc1C(=O)Nc1nc2c(s1)CN(C(=O)c1cc(C(F)F)ccc1F)C2 [US20250230171, Compound 433] |
| 8 | COc1cnc(Cl)cc1-c1cc(C)ncc1C(=O)Nc1nc2c(s1)CN(C(=O)c1nn(C)cc1F)C2 [US20250230171, Compound 435] |
| 8 | COc1cnc(Cl)cc1-c1cc(C)ncc1C(=O)Nc1nc2c(s1)CN(C(=O)c1cc(Cl)nn1C)C2 [US20250230171, Compound 436] |
| 8 | COc1cnc(Cl)cc1-c1cc(C)ncc1C(=O)Nc1nc2c(s1)CN(C(=O)c1nccnc1OC)C2 [US20250230171, Compound 437] |
| 8 | COc1ccc(C#N)cc1-c1cc(C)ncc1C(=O)Nc1nc2c(s1)CN(C(=O)c1ccc(C(F)F)cc1)C2 [US20250230171, Compound 438] |
| 8 | COc1cnc(C(=O)N2Cc3nc(NC(=O)c4cnc(C)cc4-c4cc(Cl)ncc4OC)sc3C2)c(OC)n1 [US20250230171, Compound 440] |
| 8 | COc1cnc(Cl)cc1-c1cc(C)ncc1C(=O)Nc1nc2c(s1)CN(C(=O)c1ccnc(C(F)(F)F)n1)C2 [US20250230171, Compound 443] |
| 8 | COc1cnc(Cl)cc1-c1cc(C)ncc1C(=O)Nc1nc2c(s1)CN(C(=O)c1cnc(C(F)F)c(Cl)c1)C2 [US20250230171, Compound 445] |
| 8 | COc1cnc(Cl)cc1-c1cc(C)ncc1C(=O)Nc1nc2c(s1)CN(C(=O)c1nc(Cl)ccc1C)C2 [US20250230171, Compound 450] |
| 8 | COc1cnc(Cl)cc1-c1cc(C)ncc1C(=O)Nc1nc2c(s1)CN(C(=O)c1ccc(C(F)F)nn1)C2 [US20250230171, Compound 454] |
| 8 | COc1cnc(Cl)cc1-c1cc(C)ncc1C(=O)Nc1nc2c(s1)CN(C(=O)c1cccc3nccn13)C2 [US20250230171, Compound 455] |
| 8 | COc1cnc(Cl)cc1-c1cc(C)ncc1C(=O)Nc1nc2c(s1)CN(C(=O)C1CC3(CC(OC(F)F)C3)C1)C2 (stereo not drawn) [US20250230171, Compound 456] |
| 8 | COc1cnc(Cl)cc1-c1cc(C)ncc1C(=O)Nc1nc2c(s1)CN(C(=O)c1nn(C)cc1N)C2 [US20250230171, Compound 458] |
| 8 | COc1cnc(Cl)cc1-c1cc(C)ncc1C(=O)Nc1nc2c(s1)CN(C(=O)c1ncccc1Cl)C2 [US20250230171, Compound 459] |
| 8 | COc1cnc(Cl)cc1-c1cc(C)ncc1C(=O)Nc1nc2c(s1)CN(C(=O)c1cccn3cncc13)C2 [US20250230171, Compound 462] |
